# Reference: paper PMC4532424, “The Novel Cyclophilin Inhibitor CPI-431-32 Concurrently Blocks HCV and HIV-1 Infections via a Similar Mechanism of Action” (PLoS ONE, 2015)
# Where two headings read alike, the source gives them in different places. Non-standard residues stand in square brackets, D forms with d. Residues, ends and D or L forms follow the SMILES beside them. NMeThr(4R-Me,4-(CH2)6NHAc) = CN[C@H](C(=O)O)[C@H](O)[C@H](C)CCCCCCNC(C)=O; NMeL = CN[C@@H](CC(C)C)C(=O)O; NMeV = CN[C@H](C(=O)O)C(C)C; dNMeA = CN[C@H](C)C(=O)O; Abu = CC[C@H](N)C(=O)O
# Columns and labels:
# Human recombinant CypA = biological target: T1, Human recombinant CypA (Homo sapiens, UniProt P62937); assay: α-chymotrypsin-coupled CypA isomerase inhibition assay; type: biochemical; settings: one representative experiment, mean ± SD; 10 nM CypA, 5°C
# T1 construct: purchased Atgen
# T1 sequence (P62937 whole entry): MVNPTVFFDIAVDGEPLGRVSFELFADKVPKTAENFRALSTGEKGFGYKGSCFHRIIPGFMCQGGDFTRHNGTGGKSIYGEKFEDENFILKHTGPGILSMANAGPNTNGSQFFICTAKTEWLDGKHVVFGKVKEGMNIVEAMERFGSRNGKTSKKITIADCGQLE
# Protocol: Succinyl-AAPF-pNA peptide substrate (Sigma) was dissolved to 3.2 mM in dried LiCl/trifluoroethanol. […] All solutions were equilibrated, and reactions conducted at 5°C. Reactions were initiated by mixing 95 μL reaction mix with 5 μL peptide preloaded in multiple wells of 96-well plates and measuring OD405 nm in each well at 6-sec intervals for 6 min using a BMG Polarstar Galaxy plate reader. Data were fitted with Graphpad Prism 6.0 to obtain first-order rate constants.
# HIV-1 JR-CSF [1] = assay: HIV-1 mono-infection of CD4+ T-lymphocytes, p24 ELISA; type: cell-based; settings: Fig 1A
# Text: Hemoglobin determinations at every donation protect the donor from phlebotomy-induced anemia. The donor pool also provides investigators with a mix of gender and minority subjects, and recruitment is ongoing for underrepresented minorities. At the present time, the NBDS has 320 active normal blood donors enrolled. Use of the Normal Blood Donor Service is considered “human subjects” research and each investigator who wants to use the service must submit a protocol to the IRB for review and approval. Dr. Gallay has current IRB approval for the human blood obtained for research described in this manuscript. Protocol No: IRB-15-6552. Full name of the IRB is "Scripps IRB". […] Consent from blood donors was obtained verbally. The authors have no access to identifying donor information for these samples.
# CypA-HCV NS5A complex = CypA-HCV NS5A complex (Homo sapiens, UniProt P62937); assay: CypA-HCV NS5A interaction ELISA; settings: Table 2; NS5A-His on GST-CypA-coated plates, 16 h at 4°C; read-out: IC50, inhibition of NS5A binding to CypA
# Chain of CypA-HCV NS5A complex (P62937 whole entry, one chain of several): as the sequence (P62937 whole entry) above
# Protocol: (§1) Recombinant GST-CypA, full-length HCV NS5A Con1 (pET-Ub-NS5A Con1-His) and HIV-1 capsid NL4.3 (pET-capsid-His) were expressed and purified as described previously. Inhibition of CypA-HCV NS5A and CypA-HIV-1 capsid interactions by the CypI […] were conducted as we described previously.
# (§2) CypI are thought to inhibit the infection of HIV-1 and HCV mostly by preventing CypA-HIV-1 capsid and CypA-HCV NS5A interactions, respectively. The potency of CypI at inhibiting these interactions was determined using an ELISA assay previously developed in our laboratory. For analyzing CypA-HCV NS5A interactions, recombinant NS5A-His was added to GST-CypA-coated wells for 16 h at 4°C in the absence or presence of CypI, followed by detection of captured NS5A-His with anti-His antibodies. A similar assay was used for CypA-HIV-1 interactions except with recombinant His-tagged HIV-1 capsid.
# [2] = test system: HIV-1 ALV-resistant (NL4.3 V86P/H87Q/I91V/M96I); assay: HIV-1 infection of TZM reporter cells, β-galactosidase; type: cell-based; settings: read-out: EC50, inhibition of HIV-1 infection
# Text: (§3) the reverse transcriptase inhibitor-resistant HIV-1 variant (nevirapine-resistant N119), the protease inhibitor-resistant HIV-1 variant (saquinavir-resistant), and the naturally occurring primary ALV-resistant variant CMU08 (contributed by Kenrad Nelson) were obtained from the AIDS Research and Reference Reagent Program. Lab-adapted wild-type NL4.3 and the ALV-resistant V86P/H87Q/I91V/M96I NL4.3 capsid mutant variant were described previously. For infection scoring, TZM-bl target cells (contributed by J. C. Kappes, X. Wu, and Tranzyme, Inc.) obtained through the AIDS Research and Reference Reagent Program were exposed to wild-type or drug-resistant HIV-1 variants (1 ng of p24) together with increasing concentrations of DMSO or CypI. HIV-1 infection was quantified 48 h post-infection by measuring β-galactosidase activity in cell lysates.
# (§4) We then tested the efficacy of CPI-431-32 and ALV against a panel of drug-resistant HIV-1 and HCV variants. Specifically, we measured CPI-431-32 EC50 on a reverse transcriptase inhibitor-resistant HIV-1 variant (nevirapine-resistant), a protease inhibitor-resistant HIV-1 variant (saquinavir-resistant), and two partially ALV-resistant HIV-1 variants—a lab-adapted resistant variant (V86P/H87Q/I91V/M96I capsid mutant) and a naturally occurring primary partially resistant variant (CMU08). […] HIV-1 infection was quantified 48 h post-infection by measuring β-galactosidase activity in cell lysates.
# [3] = test system: HIV-1 ALV-resistant (CMU8); assay: as above; type: cell-based; settings: read-out: EC50, inhibition of HIV-1 infection
# Text: as §3, §4
# HIV-1 wild-type (NL4.3) = assay: as above; type: cell-based; settings: read-out: EC50, inhibition of HIV-1 infection
# Text: as §3, §4
# [4] = test system: HIV-1 protease (saquinavir)-resistant; assay: as above; type: cell-based; settings: read-out: EC50, inhibition of HIV-1 infection
# Text: as §3, §4
# [5] = test system: HIV-1 reverse transcriptase (nevirapine)-resistant; assay: as above; type: cell-based; settings: read-out: EC50, inhibition of HIV-1 infection
# Text: as §3, §4
# HIV-1 JR-CSF [6] = assay: HIV-1/HCV co-culture co-infection, HIV-1 p24 ELISA; type: cell-based
# Protocol: (§5) CD4+ T-lymphocytes and Huh7.5.1 cells uninfected or infected for 3 h as described above were mixed in a single flask and HIV-1 and HCV replication monitored over a period of 3 weeks as described above.
# (§6) HIV-1 target cells—CD4+ T-lymphocytes—and HCV target cells—hepatoma cells—were placed in a single chamber (flask), exposed to both HIV-1 and HCV, and viral replication monitored over time by p24 capsid and core ELISAs, respectively.
# (§7) CD4+ T-lymphocytes (A) and Huh7.5.1 cells (B) (0.5 x 10^6 cells) (triplicates) were exposed to HIV-1 JR-CSF and HCV JFH-1. Drugs (2 μM) were added 3 h pre-viral exposure (top panels) or 3 days post-viral exposure (bottom panels). Viral replications were monitored by HIV-1 p24 and HCV core ELISAs. C. CD4+ T-lymphocytes (0.5 x 10^6 cells) (triplicates) were exposed to HIV-1 JR-CSF. Drugs were initially added 3 days post-viral exposure (2 μM) and then daily (0.5 μM). Viral replications were monitored by HIV-1 p24 and HCV core ELISAs. […] D. Model for the HIV-1/HCV co-culture system.
# HCV JFH-1 = assay: HIV-1/HCV co-culture co-infection, HCV core ELISA; type: cell-based
# Protocol: as §5, §6, §7
# [7] = biological target: CypA-HIV-1 capsid complex (Homo sapiens, UniProt P62937); assay: CypA-HIV-1 capsid interaction ELISA; type: binding; settings: 16 h at 4°C
# Chain of CypA-HIV-1 capsid complex (P62937 whole entry, one chain of several): as the sequence (P62937 whole entry) above
# Protocol: as §1, §2
# [8] = Human immunodeficiency virus 1, TZM, 48 h
# [9] = drug treatments begun 3 h before virus addition
# [10] = single dose added 3 days post-infection
SMILES,IC50 (Human recombinant CypA),Effect on HIV-1 replication (in words) (HIV-1 JR-CSF [1]),IC50 (CypA-HCV NS5A complex),Effect on HIV-1 replication (in words) (HIV-1 JR-CSF [6]; [9]),Effect on HIV-1 replication (in words) (HIV-1 JR-CSF [6]; [10]),Effect on HCV replication (in words) (HCV JFH-1; [9]),Effect on HCV replication (in words) (HCV JFH-1; [10]),also measured
"C/C=C/C[C@@H](C)[C@@H](O)[C@H]1C(=O)N[C@@H](CC)C(=O)N(C)[C@H](C)C(=O)N(CC)[C@@H](C(C)C)C(=O)N[C@@H](C(C)C)C(=O)N(C)[C@@H](CC(C)C)C(=O)N[C@@H](C)C(=O)N[C@H](C)C(=O)N(C)[C@@H](CC(C)C)C(=O)N(C)[C@@H](CC(C)C)C(=O)N(C)[C@@H](C(C)C)C(=O)N1C [ALV, Alisporivir]",2.8 ± 0.4 nM,efficiently blocked viral growth,420 ± 50 nM,totally prevented HIV-1 replication,a small degree of replication occurred within the first 3 days of addition,completely prevented,immediately and gradually caused a decline in HCV levels,"EC50 [2, 8]: 2300 ± 300 nM; EC50 [3, 8]: 5600 ± 400 nM; EC50 (HIV-1 wild-type (NL4.3); Human immunodeficiency virus 1, 48 h post-infection): 120 ± 30 nM; EC50 [4, 8]: 160 ± 20 nM; EC50 [5, 8]: 100 ± 20 nM; IC50 ([7]; IC50, inhibition of CypA-HIV-1 capsid interactions): 410 ± 50 nM; IC50 ([7]; IC50, inhibition of capsid binding to CypA, Table 2, capsid-His on GST-CypA-coated plates): 420 ± 110 nM"
"CC[C@@H]1NC(=O)[C@H]([C@H](O)[C@H](C)CCCCCCNC(C)=O)N(C)C(=O)[C@H](C(C)C)N(C)C(=O)[C@H](CC(C)C)N(C)C(=O)[C@H](CC(C)C)N(C)C(=O)[C@@H](C)NC(=O)[C@H](C)NC(=O)[C@H](CC(C)C)N(C)C(=O)[C@H](C(C)C)NC(=O)[C@H](CC(C)C)N(C)C(=O)[C@@H](C)N(C)C1=O [CPI-431-32] (cyclo(A[dA][NMeL][NMeL][NMeV][NMeThr(4R-Me,4-(CH2)6NHAc)][Abu][dNMeA][NMeL]V[NMeL]))",1.8 ± 0.6 nM,efficiently blocked viral growth,180 ± 30 nM,totally prevented HIV-1 replication,halted HIV-1 replication,completely prevented,immediately and gradually caused a decline in HCV levels,"EC50 ([2]; HIV-1 ALV-resistant (NL4.3 V86P/H87Q/I91V/M96I), TZM cells, 48 h post-infection): 900 ± 100 nM; EC50 ([3]; HIV-1 ALV-resistant (CMU8), TZM cells, 48 h post-infection): 2100 ± 100 nM; EC50 (HIV-1 wild-type (NL4.3); 48 h post-infection): 50 ± 10 nM; EC50 ([4]; HIV-1 protease (saquinavir)-resistant, TZM cells, 48 h post-infection): 70 ± 20 nM; EC50 ([5]; HIV-1 reverse transcriptase (nevirapine)-resistant, TZM cells, 48 h post-infection): 30 ± 10 nM; IC50 ([7]; read-out: IC50, inhibition of CypA-HIV-1 capsid interactions): 210 ± 10 nM; IC50 ([7]; Table 2, capsid-His on GST-CypA-coated plates, read-out: IC50, inhibition of capsid binding to CypA): 230 ± 10 nM"
